The text below walks through data of patent publication US12559506B2, “Indazole based compounds and associated methods of use” (Arvinas Operations, Inc., priority 2021, dated 2026).

In general, Dmax refers to the greatest extent of degradation seen. Usually DC50 stands for the concentration at which degradation of the target reaches its halfway point.

Like-named read-outs stand apart in the source and are kept apart here.

In the assay the target is T1, LRRK2 (endogenous, HiBit tagged) (Homo sapiens, UniProt Q5S007).
T1 construct: endogenous in cells; host or cells: HEK293 cells with HiBit knock-in at the endogenous LRRK2 locus, stably expressing firefly luciferase
The assay is described as follows: Endogenous LRRK2 degradation assay, endogenous gene C-terminally HiBit-tagged in HEK293 cells (Nano-Glo Dual Luciferase). Type of assay: cell-based. A digest of the protocol: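 LRRK2-HiBit quantified via Nano-Glo Dual Luciferase in HEK293 knock-in cells co-expressing firefly luciferase, after 24 h exposure to compound (1 μM final top, 1:3, 11 points). Values normalised to DMSO median per plate and curve-fitted; Alamar Blue viability run alongside.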
In general terms: The HiBiT peptide binds its large partner to form an active luciferase.

The mark [1] stands for this setting: endogenous HiBit-tagged LRRK2, HEK293 cells, 24 hours, read-out: **Endogenous WT Dmax (%).
Where [2] appears, read: endogenous HiBit-tagged LRRK2, HEK293 cells, 24 hours, read-out: *Endogenous WT DC50.
Setting [3] is: endogenous HiBit-tagged LRRK2 in HEK293 cells, 24 hours treatment, read-out: Endogenous WT DC50.
The mark [4] stands for this setting: endogenous HiBit-tagged LRRK2 in HEK293 cells, 24 hours treatment, read-out: Endogenous WT Dmax.
Where [5] appears, read: endogenous HiBit-tagged LRRK2 in HEK293 cells, 24 hours treatment, read-out: **Endogenous WT Dmax (%).
Where [6] appears, read: endogenous HiBit-tagged LRRK2 in HEK293 cells, 24 hours treatment, read-out: *Endogenous WT DC50.

T1 sequence (Q5S007 whole entry): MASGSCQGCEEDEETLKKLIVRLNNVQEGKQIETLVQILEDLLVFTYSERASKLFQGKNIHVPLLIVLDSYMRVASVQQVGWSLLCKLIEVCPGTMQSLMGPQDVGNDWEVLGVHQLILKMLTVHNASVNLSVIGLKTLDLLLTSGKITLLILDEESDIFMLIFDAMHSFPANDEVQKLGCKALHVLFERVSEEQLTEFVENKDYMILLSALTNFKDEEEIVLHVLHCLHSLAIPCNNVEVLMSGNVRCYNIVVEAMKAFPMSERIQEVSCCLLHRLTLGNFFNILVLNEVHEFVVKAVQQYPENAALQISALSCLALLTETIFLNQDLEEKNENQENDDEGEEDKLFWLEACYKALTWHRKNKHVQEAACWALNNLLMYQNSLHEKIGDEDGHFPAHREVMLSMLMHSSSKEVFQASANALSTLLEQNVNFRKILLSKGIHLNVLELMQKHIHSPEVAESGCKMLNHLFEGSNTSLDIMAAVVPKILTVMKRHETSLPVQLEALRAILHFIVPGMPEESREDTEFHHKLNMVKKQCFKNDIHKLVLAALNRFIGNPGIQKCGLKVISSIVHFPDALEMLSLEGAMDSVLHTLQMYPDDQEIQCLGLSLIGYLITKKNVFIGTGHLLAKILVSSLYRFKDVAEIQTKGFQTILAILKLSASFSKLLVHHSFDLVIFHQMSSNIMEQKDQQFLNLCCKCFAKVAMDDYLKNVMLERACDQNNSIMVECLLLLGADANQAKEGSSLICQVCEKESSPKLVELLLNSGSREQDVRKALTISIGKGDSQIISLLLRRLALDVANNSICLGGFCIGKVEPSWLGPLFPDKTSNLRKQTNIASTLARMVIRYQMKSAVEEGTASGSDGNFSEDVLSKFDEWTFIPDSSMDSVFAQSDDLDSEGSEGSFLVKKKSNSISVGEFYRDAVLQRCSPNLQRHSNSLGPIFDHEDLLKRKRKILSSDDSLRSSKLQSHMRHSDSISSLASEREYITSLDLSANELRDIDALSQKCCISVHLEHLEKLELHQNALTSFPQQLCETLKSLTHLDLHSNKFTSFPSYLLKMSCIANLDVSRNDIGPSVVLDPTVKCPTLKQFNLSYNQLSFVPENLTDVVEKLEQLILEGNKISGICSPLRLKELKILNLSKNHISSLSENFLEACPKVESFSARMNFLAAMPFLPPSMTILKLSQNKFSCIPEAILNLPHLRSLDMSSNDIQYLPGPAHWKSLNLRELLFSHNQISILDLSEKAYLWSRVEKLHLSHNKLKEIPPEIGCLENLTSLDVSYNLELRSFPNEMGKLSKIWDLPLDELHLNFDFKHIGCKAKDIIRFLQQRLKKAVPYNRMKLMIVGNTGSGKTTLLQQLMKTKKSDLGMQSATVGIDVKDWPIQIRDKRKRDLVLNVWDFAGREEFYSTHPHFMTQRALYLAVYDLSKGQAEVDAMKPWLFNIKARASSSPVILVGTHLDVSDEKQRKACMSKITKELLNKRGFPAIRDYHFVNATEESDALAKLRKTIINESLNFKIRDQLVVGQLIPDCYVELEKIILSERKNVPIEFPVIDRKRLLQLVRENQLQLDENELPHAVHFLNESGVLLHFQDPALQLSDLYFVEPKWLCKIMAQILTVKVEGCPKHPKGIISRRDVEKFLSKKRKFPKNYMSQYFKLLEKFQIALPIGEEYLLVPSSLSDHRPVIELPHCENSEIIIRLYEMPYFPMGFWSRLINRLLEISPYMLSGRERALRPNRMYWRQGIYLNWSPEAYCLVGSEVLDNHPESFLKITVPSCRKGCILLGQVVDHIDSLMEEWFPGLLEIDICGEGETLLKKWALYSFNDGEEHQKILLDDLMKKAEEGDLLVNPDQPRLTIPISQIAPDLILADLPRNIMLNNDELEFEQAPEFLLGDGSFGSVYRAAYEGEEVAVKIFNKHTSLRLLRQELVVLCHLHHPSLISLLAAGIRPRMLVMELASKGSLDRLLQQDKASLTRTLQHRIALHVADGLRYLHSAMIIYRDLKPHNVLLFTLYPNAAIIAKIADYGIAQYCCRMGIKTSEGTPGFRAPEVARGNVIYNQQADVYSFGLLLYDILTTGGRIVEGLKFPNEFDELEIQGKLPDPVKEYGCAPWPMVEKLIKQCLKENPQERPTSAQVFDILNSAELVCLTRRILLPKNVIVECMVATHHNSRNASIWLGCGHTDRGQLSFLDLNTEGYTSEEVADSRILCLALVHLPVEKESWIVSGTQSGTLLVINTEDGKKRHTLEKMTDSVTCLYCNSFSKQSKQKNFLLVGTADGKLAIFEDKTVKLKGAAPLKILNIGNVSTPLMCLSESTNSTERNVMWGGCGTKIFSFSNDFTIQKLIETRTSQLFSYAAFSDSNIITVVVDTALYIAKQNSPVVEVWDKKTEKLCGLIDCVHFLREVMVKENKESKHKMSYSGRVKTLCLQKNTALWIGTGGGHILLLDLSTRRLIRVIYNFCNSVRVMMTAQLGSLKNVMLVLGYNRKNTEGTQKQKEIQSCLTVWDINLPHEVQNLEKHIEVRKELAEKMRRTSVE

Take `CC1(Oc2cc3c(-c4cc(N5CCN(CC6(F)CCN(CC7CCN(c8cc9c(cc8F)C(=O)N(C8CCC(=O)NC8=O)C9)CC7)CC6)CC5)ncn4)[nH]nc3cc2F)CC1` (centres unmarked) [Compound 195, 3-[6-fluoro-5-[4-[[4-fluoro-4-[[4-[6-[6-fluoro-5-(1-methylcyclopropoxy)-2H-indazol-3-yl]pyrimidin-4-yl]piperazin-1-yl]methyl]-1-piperidyl]methyl]-1-piperidyl]-1-oxo-isoindolin-2-yl]piperidine-2,6-dione]: under setting [1], the greatest degradation seen (Dmax) was not below 70%. The half-maximal degradation concentration (DC50) under setting [2] is less than 10 nM.

Consider `CC1(Oc2cc3c(-c4cc(N5CCC(CC6(F)CCN(CC7CCN(c8ccc9c(c8F)CN(C8CCC(=O)NC8=O)C9=O)CC7)CC6)CC5)ncn4)n[nH]c3cc2F)CC1` (centres unmarked) [Compound 207, 3-[4-fluoro-5-[4-[[4-fluoro-4-[[1-[6-[6-fluoro-5-(1-methylcyclopropoxy)-1H-indazol-3-yl]pyrimidin-4-yl]-4-piperidyl]methyl]-1-piperidyl]methyl]-1-piperidyl]-1-oxo-isoindolin-2-yl]piperidine-2,6-dione], for which, under setting [3], the DC50 was in the range of 10 to 50 nM. Under setting [4], the Dmax lay within 50 to 70%.

As to `COc1c(N2CCC(CN3CCN(CC4CCN(c5cc(-c6n[nH]c7cnc(OC8(C)CC8)cc67)ncn5)CC4)[C@@H](C)C3)CC2)ccc2c1CN(C1CCC(=O)NC1=O)C2=O` (stereo partly drawn) [Compound 282, 3-[4-methoxy-5-(4-{[(3S)-3-methyl-4-[(1-{6-[5-(1-methylcyclopropoxy)-1H-pyrazolo[3,4-c]pyridin-3-yl]pyrimidin-4-yl}piperidin-4-yl)methyl]piperazin-1-yl]methyl}piperidin-1-yl)-1-oxo-2,3-dihydro-1H-isoindol-2-yl]piperidine-2,6-dione], the Dmax under setting [5] is not below 70%. The DC50 under setting [6] is less than 10 nM.

Regarding `COc1c(N2CC[C@@H](CN3CCN(CC4CCN(c5cc(-c6n[nH]c7ccc(OC8(C)CC8)cc67)ncn5)CC4)CC3)C2)ccc2c1CN(C1CCC(=O)NC1=O)C2=O` (stereo partly drawn) [Compound 328, 3-{4-methoxy-5-[(3S)-3-({4-[(1-{6-[5-(1-methylcyclopropoxy)-1H-indazol-3-yl]pyrimidin-4-yl}piperidin-4-yl)methyl]piperazin-1-yl}methyl)pyrrolidin-1-yl]-1-oxo-2,3-dihydro-1H-isoindol-2-yl}piperidine-2,6-dione], the Dmax under setting [5] lay within 50 to 70%. In addition, the DC50 under setting [6] was less than 10 nM.

For the compound `CC1(Oc2ccc3[nH]nc(-c4cc(N5CCC(CC6(F)CCN(CC7CCN(c8ccc9c(c8F)CN(C8CCC(=O)NC8=O)C9=O)CC7)CC6)CC5)ncn4)c3c2)CC1` (centres unmarked) [Compound 206, 3-[4-fluoro-5-[4-[[4-fluoro-4-[[1-[6-[5-(1-methylcyclopropoxy)-1H-indazol-3-yl]pyrimidin-4-yl]-4-piperidyl]methyl]-1-piperidyl]methyl]-1-piperidyl]-1-oxo-isoindolin-2-yl]piperidine-2,6-dione], under setting [3], the DC50 is less than 10 nM. Further, the Dmax under setting [4] is not below 70%.

For `CC1(Oc2cc3c(-c4cc(N5CCC(CN6CCC(F)(CN7CCN(c8cc9c(cc8F)C(=O)N(C8CCC(=O)NC8=O)C9)CC7)CC6)CC5)ncn4)[nH]nc3cc2F)CC1` (centres unmarked) [Compound 193, 3-[6-fluoro-5-[4-[[4-fluoro-1-[[1-[6-[6-fluoro-5-(1-methylcyclopropoxy)-2H-indazol-3-yl]pyrimidin-4-yl]-4-piperidyl]methyl]-4-piperidyl]methyl]piperazin-1-yl]-1-oxo-isoindolin-2-yl]piperidine-2,6-dione], under setting [1], the Dmax is not below 70%. In addition, under setting [2], the DC50 was less than 10 nM.

Regarding `COc1c(N2CCC(CN3CCN(CC4CCN(c5cc(-c6n[nH]c7cc(F)c(OC8(C)CC8)cc67)ncn5)CC4)C(C)(C)C3)CC2)ccc2c1CN(C1CCC(=O)NC1=O)C2=O` (centres unmarked) [Compound 359, 3-{5-[4-({4-[(1-{6-[6-fluoro-5-(1-methylcyclopropoxy)-1H-indazol-3-yl]pyrimidin-4-yl}piperidin-4-yl)methyl]-3,3-dimethylpiperazin-1-yl}methyl)piperidin-1-yl]-4-methoxy-1-oxo-2,3-dihydro-1H-isoindol-2-yl}piperidine-2,6-dione], under setting [3], the DC50 was less than 10 nM. Besides, the Dmax under setting [4] is 50 to 70%.

In the case of `CC1(Oc2ccc3[nH]nc(-c4cc(N5CCC(CN6CCC(F)(CC7CCN(c8ccc9c(c8F)CN(C8CCC(=O)NC8=O)C9=O)CC7)CC6)CC5)ncn4)c3c2)CC1` (centres unmarked) [Compound 231, 3-[4-fluoro-5-[4-[[4-fluoro-1-[[1-[6-[5-(1-methylcyclopropoxy)-1H-indazol-3-yl]pyrimidin-4-yl]-4-piperidyl]methyl]-4-piperidyl]methyl]-1-piperidyl]-1-oxo-isoindolin-2-yl]piperidine-2,6-dione], the DC50 under setting [3] is less than 10 nM. In addition, the Dmax under setting [4] was in the range of 50 to 70%.

`CC1(Oc2ccc3n[nH]c(-c4cc(N5CCC(CN6CC(F)(CN7CCN(c8ccc9c(c8F)CN(C8CCC(=O)NC8=O)C9=O)CC7)C6)CC5)ncn4)c3c2)CC1` (centres unmarked) [Compound 301, 3-{4-fluoro-5-[4-({3-fluoro-1-[(1-{6-[5-(1-methylcyclopropoxy)-2H-indazol-3-yl]pyrimidin-4-yl}piperidin-4-yl)methyl]azetidin-3-yl}methyl)piperazin-1-yl]-1-oxo-2,3-dihydro-1H-isoindol-2-yl}piperidine-2,6-dione]: the Dmax under setting [5] is not below 70%. In addition, under setting [6], the 50% degradation concentration (DC50) was less than 10 nM.

As to `COc1c(N2CCC(CN3CCN(CC4CCN(c5cc(-c6n[nH]c7cc(F)c(OC8(C)CC8)cc67)ncn5)CC4)C(C)(C)C3)CC2)ccc2c1CN(C1CCC(=O)NC1=O)C2=O` (centres unmarked) [Compound 278, 3-{5-[4-({4-[(1-{6-[6-fluoro-5-(1-methylcyclopropoxy)-1H-indazol-3-yl]pyrimidin-4-yl}piperidin-4-yl)methyl]-3,3-dimethylpiperazin-1-yl}methyl)piperidin-1-yl]-4-methoxy-1-oxo-2,3-dihydro-1H-isoindol-2-yl}piperidine-2,6-dione], the Dmax under setting [5] was 50 to 70%. Moreover, the DC50 under setting [6] was less than 10 nM.

With `COc1c(N2CCC(CN3CCN(CC4CCN(c5cc(-c6n[nH]c7ccc(OC8(C)CC8)cc67)ncn5)CC4)C(C)(C)C3)CC2)ccc2c1CN(C1CCC(=O)NC1=O)C2=O` (centres unmarked) [Compound 251, 3-{5-[4-({3,3-dimethyl-4-[(1-{6-[5-(1-methylcyclopropoxy)-1H-indazol-3-yl]pyrimidin-4-yl}piperidin-4-yl)methyl]piperazin-1-yl}methyl)piperidin-1-yl]-4-methoxy-1-oxo-2,3-dihydro-1H-isoindol-2-yl}piperidine-2,6-dione], the DC50 under setting [3] is less than 10 nM. Also, the Dmax under setting [4] was 50 to 70%.

Regarding `COc1c(N2CCN(C[C@H]3CC[C@H](OC4CCN(c5cc(-c6n[nH]c7cnc(OC8(C)CC8)cc67)ncn5)CC4)CC3)CC2)ccc2c1CN(C1CCC(=O)NC1=O)C2=O` (some centres unmarked) [Compound 268, 3-[4-methoxy-1-oxo-5-(4-{[(1r,4r)-4-[(1-{6-[5-(1-methylcyclopropoxy)-1H-pyrazolo[3,4-c]pyridin-3-yl]pyrimidin-4-yl}piperidin-4-yl)oxy]cyclohexyl]methyl}piperazin-1-yl)-2,3-dihydro-1H-isoindol-2-yl]piperidine-2,6-dione], the Dmax under setting [5] fell in the range of 50 to 70%. In addition, the DC50 under setting [6] was less than 10 nM.

With `CC1(Oc2ccc3[nH]nc(-c4cc(N5CCC(CN6CCC(F)(CN7CCN(c8ccc9c(c8F)CN(C8CCC(=O)NC8=O)C9=O)CC7)CC6)CC5)ncn4)c3c2)CC1` (centres unmarked) [Compound 190, 3-[4-fluoro-5-[4-[[4-fluoro-1-[[1-[6-[5-(1-methylcyclopropoxy)-1H-indazol-3-yl]pyrimidin-4-yl]-4-piperidyl]methyl]-4-piperidyl]methyl]piperazin-1-yl]-1-oxo-isoindolin-2-yl]piperidine-2,6-dione], the greatest degradation seen (Dmax) under setting [1] is not below 70%. The DC50 under setting [2] was less than 10 nM.

For the compound `COc1c(N2CCC(CN3CCN(C[C@H]4CCN(c5cc(-c6n[nH]c7ccc(OC8(C)CC8)cc67)ncn5)C4)CC3)CC2)ccc2c1CN(C1CCC(=O)NC1=O)C2=O` (stereo partly drawn) [Compound 303, 3-(4-methoxy-5-{4-[(4-{[(3R)-1-{6-[5-(1-methylcyclopropoxy)-1H-indazol-3-yl]pyrimidin-4-yl}pyrrolidin-3-yl]methyl}piperazin-1-yl)methyl]piperidin-1-yl}-1-oxo-2,3-dihydro-1H-isoindol-2-yl)piperidine-2,6-dione], the Dmax under setting [5] lay in the range of 50 to 70%. Also, the DC50 under setting [6] was less than 10 nM.

In the case of `C[C@H]1CN(CC2CCN(c3ccc4c(c3F)CN(C3CCC(=O)NC3=O)C4=O)CC2)CCN1CC1CCN(c2cc(-c3n[nH]c4ccc(OC5(C)CC5)cc34)ncn2)CC1` (stereo partly drawn) [Compound 221, 3-[4-fluoro-5-(4-{[(3S)-3-methyl-4-[(1-{6-[5-(1-methylcyclopropoxy)-1H-indazol-3-yl]pyrimidin-4-yl}piperidin-4-yl)methyl]piperazin-1-yl]methyl}piperidin-1-yl)-1-oxo-2,3-dihydro-1H-isoindol-2-yl]piperidine-2,6-dione], the DC50 under setting [3] is less than 10 nM. Further, the Dmax under setting [4] lay within 50 to 70%.

For the compound `COc1c(N2CC3(CCN(CCOC4CCN(c5cc(-c6n[nH]c7ccc(OC8(C)CC8)cc67)ncn5)CC4)CC3(F)F)C2)ccc2c1CN(C1CCC(=O)NC1=O)C2=O` (centres unmarked) [Compound 357, 3-[5-(5,5-difluoro-7-{2-[(1-{6-[5-(1-methylcyclopropoxy)-1H-indazol-3-yl]pyrimidin-4-yl}piperidin-4-yl)oxy]ethyl}-2,7-diazaspiro[3.5]nonan-2-yl)-4-methoxy-1-oxo-2,3-dihydro-1H-isoindol-2-yl]piperidine-2,6-dione], the DC50 under setting [3] was less than 10 nM. Also, the maximal degradation (Dmax) under setting [4] is 50 to 70%.
